Patent US11306067B2, “Diphenyl substituted thiophene-2-amide derivatives and pharmaceutical compositions thereof useful as antimicrobial” (DENOVAMED INC., priority 2018, dated 2022)

Experiments:
[1] = test system: Pseudomonas aeurginosa ATCC 27853; experiment: Combination MIC of colistin for antibiotic adjuvant potential; assay type: cell-based; parameters: unit not given beside the values; details: colistin alone; Pseudomonas ATCC 27853
Procedure: (§1) The MIC of colistin was determined against the bacteria specified below, by itself or in the presence of 1 ug/ml or 10 ug/ml of a compound disclosed herein (nd=not determined): […]

[2] = test system: E. coli ATCC 25922; experiment: as above; assay type: cell-based; parameters: unit not given beside the values; details: colistin alone
Procedure: as §1

[3] = test system: Acinetobacter Baumannii ATCC 19606; experiment: as above; assay type: cell-based; parameters: unit not given beside the values; details: colistin alone; Acinetobacter ATCC 19606
Procedure: as §1

[4] = test system: E. coli ATCC 25922; parameters: unit not given beside the values; details: colistin alone, unexplained range under the value, probably reference range; cited from earlier work
[5] = test system: Klebsiella pneumoniae (Colistin Resistant) MMX8390; experiment: Combination MIC of colistin for antibiotic adjuvant potential; assay type: cell-based; details: colistin alone; K. pneumoniae colistin resistant MMX8390
Procedure: as §1

[6] = test system: Klebsiella pneumoniae (Colistin Sensitive) MMX214; experiment: as above; assay type: cell-based; details: colistin alone; K. pneumoniae colistin sensitive MMX214
Procedure: as §1

With colistin the MIC of colistin [1] was 0.25, the MIC of colistin [2] was 0.25 and the MIC of colistin [3] was 0.25. The “MIC of colistin, range in parentheses” value [4] was “(0.25-2)”, the MIC of colistin [5] was 16 and the MIC of colistin [6] was 2.
